Test in all cases: growth of human tumour cells (NCI), 48 h
For assay [1], the system named is SW-620 colon.
The subject of assay [2] is HOP-62 NSCLC.
Assay [3] concerns OVCAR-5 ovarian.
Assay [4] deals with HS 578T breast.
Assay [5] concerns NCI-H23 lung.
The subject of assay [6] is SN12C renal.
In assay [7] the test system is MALME-3M melanoma.
For assay [8], the system named is UACC-257 melanoma.
For assay [9], the system named is RXF 393 renal.
Assay [10] has as its system SF-268 CNS.

The results in this text go back to PubChem BioAssay (NCI).

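All cell lines were grown in 96-well plates and treated with compound for 48 hours. Abbreviation: GI50, concentration required for 50% inhibition of growth. TGI: total growth inhibition.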

On to `O=S(=O)(Nc1ccc(Cl)c(C(F)(F)F)c1)c1ccc(-c2cnc(C3CC3)o2)cc1`, for which the GI50 in assay [1] was 0.175 µM; in assay [2], 0.615 µM; in assay [3], 1.51 µM; in [4], 0.334 µM; in [5] it was 1.37 µM; in assay [6], 1.05 µM. The GI50 in assay [7] was 0.624 µM; in [8], 1.29 µM; in assay [9], 0.381 µM; in [10], 1.24 µM. Moreover, the TGI in assay [1] was over 35.5 µM; in assay [2], 4.88 µM; in assay [3], 7.24 µM; in assay [4] it was 3.48 µM; in assay [5] it was 6.37 µM; in assay [6], 4.71 µM. The TGI in assay [7] was 4.41 µM; in [8], 7.93 µM; in assay [9], 1.66 µM; in [10], 10.8 µM.
In the case of `CS(=O)(=O)c1ccc(C(F)(F)F)cc1NC(=O)Nc1cnc(Oc2ccc(-c3cc(Cl)cnc3N)cc2)nc1`, the GI50 in assay [1] was 3.24 µM; in assay [2], 3.27 µM; in [3] it was 3.1 µM; in assay [4], 2.08 µM; in assay [5], 2.56 µM; in [6], 2.25 µM. Besides, the GI50 in [7] was 2.05 µM; in assay [8] it was 3.07 µM; in assay [9] it was 1.79 µM; in assay [10], 2.39 µM. For the same molecule, the TGI in assay [1] stood at 16.8 µM; in assay [2], 12.5 µM; in [3], 15.9 µM; in [4] it was 8.44 µM; in [5] it was 7.69 µM; in [6] it was 5.26 µM. The TGI in assay [7] worked out at 5.29 µM; in [8], 11.5 µM; in assay [9] it was 4.61 µM; in assay [10] it was 10.3 µM.
Turning to `COc1cc(/C=C2\C(=O)N(c3c(Cl)cccc3Cl)c3ccccc32)cc(OC)c1O`, the GI50 in assay [1] was 0.702 µM; in assay [2], 1.23 µM; in assay [3] it was 8.04 µM; in [4] it was 8.98 µM; in [5], 1.47 µM; in [6], 1.01 µM. In addition, the GI50 was 0.537 µM in assay [7], 2.19 µM in [8], 1.86 µM in assay [9] and 0.413 µM in assay [10]. The TGI in [1] was 16.2 µM; in assay [2], 20.3 µM; in assay [3] it was 25 µM; in assay [4] it was over 27.8 µM; in assay [5], 14.4 µM; in assay [6] it was 17.6 µM. Moreover, the TGI in assay [7] turned out to be 16 µM; in assay [8], 19.6 µM; in [9], 11.6 µM; in [10], 14.6 µM.
For the molecule `O=[N+]([O-])c1ccc2nc(N/N=C/c3ccc(O)cc3)sc2c1`, the GI50 in [1] was 4.91 µM; in [2] it was 8.82 µM; in assay [3], 18.9 µM; in assay [4], 3.7 µM; in [5], 5.22 µM; in assay [6] it was 4.4 µM. The GI50 in assay [7] is 19.7 µM; in assay [8], 9.09 µM; in assay [9] it was 10.9 µM; in [10] it was 4.84 µM. In addition, the TGI was 27.2 µM in assay [1]; 30.7 µM in [2]; over 100 µM in assay [3]; 38.3 µM in assay [4]; over 100 µM in assay [5]; over 100 µM in assay [6]. For the same molecule, the TGI in [7] is over 100 µM; in [8], 45 µM; in assay [9], 66.9 µM; in assay [10], 53.1 µM.
As for `O=[N+]([O-])c1ccc(N(CCO)CCO)c2c1no[n+]2[O-]`, the GI50 in [1] is 1.32 µM; in assay [2], 1.39 µM; in [3], 2.78 µM; in assay [4] it was 0.705 µM; in [5] it was 1.23 µM; in assay [6], 1.61 µM. Also, the GI50 is 1.57 µM in assay [7], 1.89 µM in assay [8], 1.32 µM in assay [9] and 1.24 µM in assay [10]. Besides, the TGI in [1] worked out at 3.71 µM; in [2] it was 4.16 µM; in [3] it was 10.3 µM; in assay [4], 4.29 µM; in assay [5] it was 4.2 µM; in assay [6], 9.28 µM. In addition, the TGI amounted to 4.64 µM in [7], 6.54 µM in assay [8], 4.84 µM in [9] and 5.02 µM in [10].
`N#CC1=C(N)Oc2c(sc3c(F)cccc23)C1c1ccc([N+](=O)[O-])cc1` (stereo not given): the GI50 was 0.0723 µM in assay [1]; 0.228 µM in assay [2]; 0.552 µM in [3]; 0.194 µM in assay [4]; 0.284 µM in [5]; 0.276 µM in assay [6]. Also, the GI50 is 0.36 µM in assay [7], 0.863 µM in assay [8], 0.191 µM in assay [9] and 0.325 µM in assay [10]. In addition, the TGI is 1.42 µM in assay [1]; 1.79 µM in assay [2]; 2.26 µM in assay [3]; 0.808 µM in [4]; 1.46 µM in assay [5]; 1.31 µM in assay [6]. Besides, the TGI in assay [7] turned out to be 2.17 µM; in assay [8], 2.9 µM; in assay [9], 0.753 µM; in [10] it was 1.93 µM.
Consider `C=CC(=O)Nc1cc2c(Nc3ccc(OCc4ccccn4)c(Cl)c3)ncnc2cc1OCCN1CCOCC1`, for which the GI50 in assay [1] is 2.99 µM; in assay [2] it was 3.2 µM; in assay [3], 15.6 µM; in assay [4], 2.01 µM; in [5] it was 5.24 µM; in assay [6], 1.49 µM. Moreover, the GI50 was 11.2 µM in assay [7], 10.6 µM in [8], 0.784 µM in assay [9] and 2.87 µM in assay [10]. Also, the TGI in assay [1] is 20.7 µM; in [2], over 100 µM; in assay [3], over 100 µM; in [4], over 100 µM; in [5], 20 µM; in [6], over 100 µM. Moreover, the TGI in [7] is 42.1 µM; in assay [8] it was over 100 µM; in [9] it was 3.8 µM; in [10] it was over 65.9 µM.
For the molecule `O=C1C(Nc2ccccn2)=C(I)C(=O)c2ncccc21`, the GI50 in assay [1] is 0.33 µM; in assay [2], 1.12 µM; in [3], 1.71 µM; in assay [4] it was 1.2 µM; in assay [5], 0.584 µM; in [6] it was 0.889 µM. The GI50 in [7] was 1.27 µM; in [8], 1.59 µM; in assay [9], 1.25 µM; in assay [10], 1.34 µM. For the same molecule, the TGI turned out to be 1.63 µM in assay [1]; 2.43 µM in assay [2]; 3.25 µM in assay [3]; 4.9 µM in assay [4]; 2.61 µM in [5]; 2.56 µM in assay [6]. Besides, the TGI in assay [7] amounted to 2.54 µM; in assay [8] it was 3.49 µM; in [9], 2.75 µM; in [10], 3.8 µM.
As to `COC(=O)c1c2c(c(C)[n+]([O-])c1C)C(=O)C(NCc1ccc(F)c(Cl)c1)=CC2=O`, the GI50 in assay [1] is 2.21 µM; in assay [2] it was 2.96 µM; in [3], 1.66 µM; in assay [4], 3.22 µM; in assay [5] it was 1.74 µM; in assay [6], 1.52 µM. Moreover, the GI50 was 0.214 µM in assay [7], 1.28 µM in assay [8], 1.73 µM in [9] and 2.64 µM in assay [10]. The TGI amounted to 7.12 µM in [1]; 23.1 µM in [2]; 3.82 µM in assay [3]; 21.5 µM in assay [4]; 4.77 µM in assay [5]; 3.66 µM in assay [6]. Further, the TGI in assay [7] was determined as 0.658 µM; in assay [8], 3.1 µM; in [9], 4.05 µM; in assay [10], 13.2 µM.
Take `C[C@]12CC[C@H]3[C@@H](C[C@@H]4SC(Nc5cccc(F)c5)=N[C@@]45CC(=O)CC[C@]35C)[C@@H]1CCC2=O`: the GI50 in assay [1] was 2.33 µM; in [2], 2.07 µM; in [3] it was 2.73 µM; in assay [4], 3.14 µM; in assay [5] it was 2.27 µM; in assay [6] it was 2.36 µM. Moreover, the GI50 was 1.94 µM in assay [7], 5.47 µM in assay [8], 1.45 µM in assay [9] and 3.09 µM in assay [10]. The TGI is 4.99 µM in [1]; 5.34 µM in assay [2]; 18 µM in assay [3]; over 100 µM in assay [4]; 9.08 µM in assay [5]; 6.02 µM in assay [6]. In addition, the TGI was 5.04 µM in assay [7], 64.5 µM in assay [8], 3.25 µM in assay [9] and 11.1 µM in [10].
